From patent US9827312B2, “Method for carrying therapeutic substances into cells” (MAGFORCE AG, priority 2005, dated 2017)

What was measured:
Details in all cases: procedure of example 2
[1] = system: glioblastoma human cell line RUSIRS1; experiment: Increase in the activity of cytostatics with nanoparticles (Table 1), RUSIRS1; assay type: cell-based
Description: (§1) The experiments in vitro were carried out with the cell lines BT20 (breast carcinoma) and WiDr (colon carcinoma). The tumor cells were taken from tumor tissue of a patient and cultivated as described in DE 199 12 798 C1. 2×10^6 cells, respectively, were prepared in a 75 cm^3 cell culture bottle with 25 ml of cell culture medium (RPMI+10% FBS+1.2 ml of pyruvate for WiDr cells, or respectively BME+10% FBS+pyruvate+5 ml of non-essential amino acids+5 ml glutamine for BT20 cells) for testing the efficacy of the cefamandole/nanoparticle mixture. 136 μl of magnetic fluid MFL AS M01 (iron oxide nanoparticle coated with polycondensed N-(2-aminoethyl)-3-(trimethoxysilyl)propylamine, manufacturer: MagForce Nanotechnologies GmbH, Berlin, Germany) (cFe=2 mol/l) and 390 μl of cefamandole solution (stock solution 1 mg/ml in 0.9% NaCl) were added to said cell suspension.
(§2) Corresponding to the experiment procedure according to example 2, the following […] were tested in vitro with the active ingredients listed in table 1: a) glioblastoma human cell line RUSIRS 1; b) breast carcinoma cell lines BT20; c) colon carcinoma cell line WiDR; d) bronchial carcinoma cells NSCLC, e) rectal carcinoma cells and f) prostate carcinoma cell line DU 145.
(§3) In all cases, an increased activity of the cytostatic could be observed. The increase in activity is indicated in parentheses after the respective cytostatic, wherein (+) means an increase of about 5% to 80% and (++) means an increase of 80% to 500%.

[2] = system: breast carcinoma cell lines BT20; experiment: Increase in the activity of cytostatics with nanoparticles (Table 1), BT20; assay type: cell-based, human
Description: as §1, §2, §3

[3] = system: colon carcinoma cell line WiDr; experiment: Increase in the activity of cytostatics with nanoparticles (Table 1), WiDr; assay type: cell-based, human
Description: as §1, §2, §3

[4] = system: bronchial carcinoma cells NSCLC; experiment: Increase in the activity of cytostatics with nanoparticles (Table 1), NSCLC; assay type: cell-based
Description: as §1, §2, §3

rectal carcinoma cells = experiment: Increase in the activity of cytostatics with nanoparticles (Table 1), rectal carcinoma; assay type: cell-based
Description: as §1, §2, §3

[5] = system: prostate carcinoma cell line DU 145; experiment: Increase in the activity of cytostatics with nanoparticles (Table 1), DU 145; assay type: cell-based
Description: as §1, §2, §3

neuroglioma cell line H4 = experiment: Increase in the activity of cytostatics with nanoparticles (Table 1), H4; assay type: cell-based
Description: as §1, §2, §3

| SMILES | increase in the activity of cytostatics [1] | increase in the activity of cytostatics [2] | increase in the activity of cytostatics [3] | increase in the activity of cytostatics [4] | increase in the activity of cytostatics (rectal carcinoma cells) | increase in the activity of cytostatics [5] | increase in the activity of cytostatics (neuroglioma cell line H4) |
| --- | --- | --- | --- | --- | --- | --- | --- |
| CC(=O)O[C@H]1C(=O)[C@@]2(C)[C@H]([C@H](OC(=O)c3ccccc3)[C@]3(O)C[C@H](OC(=O)[C@H](O)[C@@H](NC(=O)c4ccccc4)c4ccccc4)C(C)=C1C3(C)C)[C@]1(OC(C)=O)CO[C@@H]1C[C@@H]2O [paclitaxel] | (+) ((+) means an increase of about 5% to 80%) | (++) ((++) means an increase of 80% to 500%) | (+) ((+) means an increase of about 5% to 80%) | (+) ((+) means an increase of about 5% to 80%) | (+) ((+) means an increase of about 5% to 80%) | (+) ((+) means an increase of about 5% to 80%) | (+) ((+) means an increase of about 5% to 80%) |
| Cc1ccc(NC(=O)c2ccc(CN3CCN(C)CC3)cc2)cc1Nc1nccc(-c2cccnc2)n1 [imatinib] | (+) ((+) means an increase of about 5% to 80%) | (+) ((+) means an increase of about 5% to 80%) | (++) ((++) means an increase of 80% to 500%) | (+) ((+) means an increase of about 5% to 80%) | (+) ((+) means an increase of about 5% to 80%) | (+) ((+) means an increase of about 5% to 80%) | (+) ((+) means an increase of about 5% to 80%) |
| O=C(O)CCCc1ccc(N(CCCl)CCCl)cc1 [chlorambucil] | (+) ((+) means an increase of about 5% to 80%) | (+) ((+) means an increase of about 5% to 80%) | (++) ((++) means an increase of 80% to 500%) | (+) ((+) means an increase of about 5% to 80%) | (+) ((+) means an increase of about 5% to 80%) | (+) ((+) means an increase of about 5% to 80%) | (++) ((++) means an increase of 80% to 500%) |
| Nc1nc2c(ncn2COCCO)c(=O)[nH]1 [acyclovir] | (+) ((+) means an increase of about 5% to 80%) | (+) ((+) means an increase of about 5% to 80%) | (+) ((+) means an increase of about 5% to 80%) | (+) ((+) means an increase of about 5% to 80%) | (++) ((++) means an increase of 80% to 500%) | (+) ((+) means an increase of about 5% to 80%) | (+) ((+) means an increase of about 5% to 80%) |
| N#Cc1ccc(C(c2ccc(C#N)cc2)n2cncn2)cc1 [letrozole] | (+) ((+) means an increase of about 5% to 80%) | (+) ((+) means an increase of about 5% to 80%) | (+) ((+) means an increase of about 5% to 80%) | (+) ((+) means an increase of about 5% to 80%) | (+) ((+) means an increase of about 5% to 80%) | (+) ((+) means an increase of about 5% to 80%) | (+) ((+) means an increase of about 5% to 80%) |
| CC[C@]1(O)C[C@H]2CN(CCc3c([nH]c4ccccc34)[C@@](C(=O)OC)(c3cc4c(cc3OC)N(C=O)[C@H]3[C@@](O)(C(=O)OC)[C@H](OC(C)=O)[C@]5(CC)C=CCN6CC[C@]43[C@@H]65)C2)C1 [vincristine] | (+) ((+) means an increase of about 5% to 80%) | (++) ((++) means an increase of 80% to 500%) | (+) ((+) means an increase of about 5% to 80%) | (++) ((++) means an increase of 80% to 500%) | (++) ((++) means an increase of 80% to 500%) | (+) ((+) means an increase of about 5% to 80%) | (+) ((+) means an increase of about 5% to 80%) |
